Source: ChEMBL document CHEMBL5154741, “Antibacterial alkylguanidino ureas: Molecular simplification approach, searching for membrane-based MoA” (Eur J Med Chem, 2022)
In brackets after ≈: the same amount, converted by molar mass. Activity calls are given as the source filed them. The calls are words filed in the database; no cut-off is given here.

Assays:
Acinetobacter baumannii = experiment: Antibacterial activity against Acinetobacter baumannii AC-54/97 assessed as bacterial growth inhibition incubated for 18 hrs by CLSI based micro-dilution broth method; assay type: functional
Cell membrane [1] = experiment: Disruption of membrane integrity in Enterococcus faecalis ATCC 19433 assessed as increase in PI uptake at 16 ug/ml measured after 15 mins by SYTO9/PI staining based fluorometric analysis; settings: dose 16.0 µg/ml
Cell membrane [2] = experiment: Disruption of membrane integrity in Bacillus subtilis ATCC 6633 assessed as increase in PI uptake at 16 ug/ml measured after 1 hr by SYTO9/PI staining based fluorometric analysis; assay type: subcellular; settings: dose 16.0 µg/ml
Cell membrane [3] = experiment: Disruption of membrane integrity in Staphylococcus aureus ATCC 25923 assessed as increase in PI uptake at 16 ug/ml measured after 1 hr by SYTO9/PI staining based fluorometric analysis; settings: dose 16.0 µg/ml
Enterococcus faecalis = experiment: Antibacterial activity against Enterococcus faecalis ATCC 19433 assessed as bacterial growth inhibition incubated for 18 hrs by micro-dilution broth method; assay type: functional
[4] = Apparent permeability of the compound across bacterial inner membrane mimic pure POPG in PBS buffer assessed as membrane retention at pH 7.4 incubated for 5 hrs by PAMPA based UV-Vis spectrophotometric analysis; assay type: ADME, cell membranes; settings: pH 7.4, 5 h
[5] = Hemolytic activity against human RBC at 1 ug/ml incubated for 30 mins (reference value: 0%); assay type: toxicity, cell-based, Erythrocyte; settings: human red blood cells (erythrocytes), at 1 µg/mL, read-out: Activity
Klebsiella pneumoniae [6] = experiment: Antibacterial activity against Klebsiella pneumoniae ATCC 13833 assessed as bacterial growth inhibition incubated for 18 hrs by micro-dilution broth method; assay type: functional
Klebsiella pneumoniae [7] = experiment: Antibacterial activity against pan drug-resistant Klebsiella pneumoniae S1-081Rb assessed as bacterial growth inhibition incubated for 18 hrs by CLSI based micro-dilution broth method; assay type: functional
[8] = Apparent permeability of the compound across bacterial inner membrane mimic pure POPG in PBS buffer at pH 7.4 incubated for 5 hrs by PAMPA based UV-Vis spectrophotometric analysis; assay type: ADME

Q: Which MBC (Acinetobacter baumannii) does the source give for `CCCCCCCCN(CCCCCCCCNC(=N)NCC1CC1)C(=O)N(CCCCCCNC(=N)NCC1CC1)CCCCCCNC(=N)NCC1CC1` here?
A: Its MBC is 8 µg/mL (≈ 10.2 µM).

Q: And the MIC (Acinetobacter baumannii)?
A: Its MIC is 8 µg/mL (≈ 10.2 µM).

Q: And the Activity (Cell membrane [1])?
A: Its Activity is “Active”.

Q: What about the Activity (Cell membrane [2]) of the same compound?
A: The Activity was “Active”.

Q: And the Activity (Cell membrane [3])?
A: The Activity was “Active”.

Q: What about the MIC (Enterococcus faecalis) of the same compound?
A: Its MIC is 0.5 µg/mL (≈ 0.636 µM).

Q: And the R% [4]?
A: The R% was 63%.

Q: What about the hemolysis at 0.5 h, 1 ug/ml [5] of the same compound?
A: Its hemolysis at 0.5 h, 1 ug/ml is 0%.

Q: What about the MIC (Klebsiella pneumoniae [6]) of the same compound?
A: The MIC was 4 µg/mL (≈ 5.09 µM).

Q: And the MBC (Klebsiella pneumoniae [7])?
A: The MBC was 8 µg/mL (≈ 10.2 µM).

Q: And the MIC (Klebsiella pneumoniae [7])?
A: The MIC was 8 µg/mL (≈ 10.2 µM).

Q: And the Papp at 5 h [8]?
A: Its Papp at 5 h is 0.18 ×10⁻⁶ cm/s.

Q: Which results are given for `N=C(N)NCCCCCCCCN(CCCCCCCCNC(=N)NCC1CC1)C(=O)N(CCCCCCCCNC(=N)NCC1CC1)CCCCCCCCNC(=N)NCC1CC1.O=C(O)C(F)(F)F`?
A: MBC (Acinetobacter baumannii): 8 µg/mL; MIC (Acinetobacter baumannii): 8 µg/mL; Activity (Cell membrane [1]): Active; Activity (Cell membrane [2]): Active; Activity (Cell membrane [3]): Active; MIC (Enterococcus faecalis): 1 µg/mL; R% [4]: 56%; hemolysis at 0.5 h, 1 ug/ml [5]: 0%; MIC (Klebsiella pneumoniae [6]): 1 µg/mL; MBC (Klebsiella pneumoniae [7]): 2 µg/mL; MIC (Klebsiella pneumoniae [7]): 2 µg/mL; Papp at 5 h [8]: 0.26 ×10⁻⁶ cm/s

Q: For `N=C(NCCCCCCCCNC(N)=O)NCC1CC1.O=C(O)C(F)(F)F`, which MBC (Acinetobacter baumannii) is on record?
A: The MBC was 16 µg/mL.

Q: What about the MIC (Acinetobacter baumannii) of the same compound?
A: Its MIC is 16 µg/mL.

Q: What about the Activity (Cell membrane [1]) of the same compound?
A: Its Activity is “Active”.

Q: And the Activity (Cell membrane [2])?
A: The Activity was “Active”.

Q: What about the Activity (Cell membrane [3]) of the same compound?
A: Its Activity is “Active”.

Q: What about the MIC (Enterococcus faecalis) of the same compound?
A: The MIC was 1 µg/mL.

Q: What about the R% [4] of the same compound?
A: Its R% is 16%.

Q: And the hemolysis at 0.5 h, 1 ug/ml [5]?
A: Its hemolysis at 0.5 h, 1 ug/ml is 0%.

Q: And the MIC (Klebsiella pneumoniae [6])?
A: Its MIC is 1 µg/mL.

Q: What about the MBC (Klebsiella pneumoniae [7]) of the same compound?
A: Its MBC is 4 µg/mL.

Q: What about the MIC (Klebsiella pneumoniae [7]) of the same compound?
A: Its MIC is 4 µg/mL.

Q: What about the Papp at 5 h [8] of the same compound?
A: Its Papp at 5 h is 6.1 ×10⁻⁶ cm/s.
